Our source for the GI50 and TGI values is PubChem BioAssay (NCI).

Experiment in all cases: NCI-60 cell line screen, 48 h
Experiment [1] concerns ACHN renal.
The subject of experiment [2] is CAKI-1 renal.
Experiment [3] relates to DU-145 prostate.
The subject of experiment [4] is HCT-15 colon.
Experiment [5] has as its system OVCAR-5 ovarian.
Experiment [6] deals with PC-3 prostate.
The test system of experiment [7] is RPMI-8226 leukemia.
For experiment [8], the system named is SK-MEL-2 melanoma.
In experiment [9] the test system is SK-MEL-28 melanoma.
Experiment [10] deals with SNB-75 CNS.

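Method: 48-hour compound exposure of cells in 96-well plates, five concentrations, linear interpolation of endpoints. At the GI50, growth is halved. TGI denotes the concentration required for complete inhibition of growth.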

`O=C(O)c1ccc(Oc2nccc(-c3c(-c4ccc(F)cc4)ncn3C3CCNCC3)n2)cc1`: the GI50 in [1], in experiment [2], in experiment [3], in experiment [4], in experiment [5] and in experiment [6] was more than 25 µM each time. Besides, the GI50 in experiment [7], in experiment [8], in experiment [9] and in [10] was more than 25 µM throughout. Further, the TGI in [1], in experiment [2], in experiment [3], in experiment [4], in [5] and in experiment [6] was more than 25 µM each time. Further, the TGI in [7], in experiment [8], in [9] and in experiment [10] was more than 25 µM in each case.

Take `O=C1NC(=O)C(c2ccccc2Cl)=C1Nc1cc(Cl)c(O)c(Cl)c1`: the GI50 is more than 23.7 µM in experiment [1]; more than 21.5 µM in experiment [2]; more than 25 µM in [3]; 15 µM in experiment [4]; more than 25 µM in experiment [5]; more than 23 µM in experiment [6]. In addition, the GI50 in [7] was more than 19.4 µM; in experiment [8], 12 µM; in [9] it was more than 14.6 µM; in experiment [10], more than 13 µM. Further, the TGI in experiment [1], in [2], in experiment [3], in experiment [4], in [5] and in experiment [6] was more than 25 µM in each case. Moreover, the TGI in experiment [7], in [8], in [9] and in experiment [10] was more than 25 µM throughout.
